Measurements: patent publication US20090068286A1, “METHOD OF TREATING CANCER BY ADMINISTRATION OF 5-SUBSTITUTED NUCLEOSIDES” (RESprotect, GmbH, priority 2007, published 2009)

Assays:
[1] = Plasma concentrations of BVDU, BVU and GEM in patients of the dose finding study (HPLC); assay type: in vivo, human
Protocol: Dose finding study: 22 Patients with advanced pancreatic adenocarcinoma were eligible for treatment in this single arm study. The mean age was 60 years and 73% of patients were males. One patient without progressive disease was excluded from the study for withdrawal of consent after the first cycle. Of the 21 patients left, 15 were in stage IV and 6 in stage III. BVDU was administered in a combination with GEM. On day 1, on day 8 and on day 15 of each 28-day cycle, BVDU was given together with GEM. On days 2-4, on days 8-11, and on days 15-18 of a 28-day cycle, BVDU was given alone in the recovery phase.
The starting dose of BVDU was 4×125 mg/day (total dose of 6,000 mg per treatment cycle) together with a fixed dose of GEM (1,000 mg/M^2). Subsequent total doses of BVDU per cycle were 7,500 mg, 9,000 mg, 10,500 mg, and 12,000 mg again in four patients per cohort. Dosage levels were administered as follows: First dose level: The starting dose of BVDU was 4×125 mg daily given at approximately 08:00 a.m. (1×125 mg BVDU), 12:00 a.m. (1×125 mg BVDU), 04:00 p.m. (1×125 mg BVDU), and 08:00 p.m. (1×125 mg BVDU). These doses were administered on days 1 to 4, days 8 to 11 and days 15 to 18; Second dose level: 1×250 mg+3×125 mg daily; Third dose level. 2×250 mg+2×125 mg daily; Forth dose level: 3×250 mg+1×125 mg daily; and, Fifth dose level: 4×250 mg daily.
Approximately 1 hour after the 08:00 a.m. BVDU-administration on day 1, day 8 and day 15 of a cycle, the GEM infusion started and GEM was infused for 30 minutes.
Analysis of the concentrations of GEM and BVDU (BVDU) as well as analysis of the concentrations of BVU ((E)-5-(2-bromovinyl)uracil, degradation product of BVDU) in plasma samples: 0.5 ml of plasma spiked with about 0.5 μg of 4-Propyl-2-thiouracil (PTU) as internal standard was extracted with 2.5 ml of methanol-acetonitrile (v/v, 1:9) by vigorous mixing for about 1 min. After centrifugation the supernatant was transferred to a beaker and evaporated to dryness at 50° C. under a gentle stream of nitrogen. The residue was dissolved in 1 ml of the solution used as mobile phase by 10 min treatment in an ultrasonic bath. After centrifugation the clear supernatant was used for HPLC-analysis. The concentrations of GEM and BVDU were calculated using a calibration curve with the respective standard substances. The concentrations of BVU were calculated using the calibration curve of BVDU and the determined response factor. Limits of detection: BVDU 20 ng/ml plasma; GEM 30 ng/ml plasma. Limits of quantification: BVDU 60 ng/ml plasma; GEM 100 ng/ml plasma.
Pharmacokinetic Results BVDU: All measurements were performed within 9 hours. Therefore, only the first three intakes of BVDU-tablets were relevant in this context, and as consequence, in dose groups four and five the intake of tablets was identical. When the dose was doubled from 125 mg to 250 mg, the mean maximum BVDU concentration in plasma increased fivefold from 290 (±152) ng/ml to 1549 (±1058) ng/ml (FIG. 10).

[2] = Animal weight of DOX ± BVDU treated rats (toxic side effects); assay type: in vivo, rat
Protocol: DT-D inactivates ROS and thus protects cells from non-specific ROS and electrophilic attacks. […] DOX treatment alone leads to weight losses because of the toxic side effects. It is certain that only the side effects (possibly the cardiotoxicity characteristic of DOX) are reduced by BVDU but not the toxic effects on the tumor.
(§1) The reduction in toxic side effects of doxorubicin (DOX) was able to be shown in the test with rats (see Table 3). SD rats were treated with dimethybenzanthracene (DMBA). […] During the treatment and one day after each treatment, i.e. in the recovery phase, the animals obtained respectively 15 mg/kg BVDU. The recovery phase in vivo was 6× one day.

AH13r tumor cells = assay: Hoechst 33258/propidium iodide (Hopi) double coloration for apoptosis; assay type: cell-based, rat; conditions: cytostatic
Text: The indication that the reduction in cell number is based on apoptosis, was detected by means of Hoechst 33258/propidium iodide (Hopi) double coloration.

[3] = test system: dimethybenzanthracene (DMBA) induced tumors; assay: Growth of DMBA-induced tumors in SD rats under DOX ± BVDU; assay type: in vivo, rat; conditions: DOX 1 mg/kg
Protocol: as §1

[4] = test system: advanced pancreatic cancer; conditions: pivotal study, Glimelius et al. 1996; cited from earlier work
pancreatic cancer = pancreatic cancer patients; cited from earlier work
[5] = SD rats, DOX 1 mg/kg, BVDU 15 mg/kg, average of 5-8 rats
[6] = DMBA-induced tumors, BVDU 15 mg/kg, average of 5-8 rats

O=c1[nH]cc(/C=C/Br)c(=O)[nH]1 [BVU, (E)-5-(2-bromovinyl)uracil]
Mean maximum BVU concentration ([1]; lower end of the BVDU dose range ("from")): 1525 (±1012) ng/ml
Mean maximum BVU concentration ([1]; upper end of the BVDU dose range ("to")): 4637 (±1353) ng/ml

COc1cccc2c1C(=O)c1c(O)c3c(c(O)c1C2=O)C[C@@](O)(C(=O)CO)C[C@@H]3O[C@H]1C[C@H](N)[C@H](O)[C@H](C)O1 [DOX, doxorubicin]
Relative animal weight Day 1 [2, 5]: 0
Relative animal weight Day 16 [2, 5]: −7%
Animal weight change as index of toxic side effects ([2]; rat, in vivo): weight losses
Apoptosis (HOPI double coloration) (AH13r tumor cells): initiate apoptosis
Relative tumor size Day 1 [3, 6]: 1
Relative tumor size Day 16 [3, 6]: 1.5
Growth of DMBA-induced tumors [3]: inhibited in their growth

Nc1ccn([C@@H]2O[C@H](CO)[C@@H](O)C2(F)F)c(=O)n1 [GEM, gemcitabine]
Median survival [4]: less than 6 months
Diarrhea (pancreatic cancer): 2%
One-year survival (pancreatic cancer): 17%
Overall survival (pancreatic cancer): 5.9 months
Skin rash (pancreatic cancer): 1%
Time to progression (pancreatic cancer): 3.55 months
GEM maximum values with increase of the BVDU dose ([1]; BVDU 125 vs 250 mg, large variability between individual patients): appear to rise
GEM detectability in plasma ([1]; at the second BVDU intake, 4 hours later): not detectable any more

CO[C@@]12[C@H](COC(N)=O)C3=C(C(=O)C(C)=C(N)C3=O)N1C[C@@H]1N[C@@H]12 [MMC, mitomycin C]
Apoptosis (HOPI double coloration) (AH13r tumor cells): initiate apoptosis

O=C1c2c(O)ccc(O)c2C(=O)c2c(NCCNCCO)ccc(NCCNCCO)c21 [MXA, mitoxantrone]
Apoptosis (HOPI double coloration) (AH13r tumor cells): initiate apoptosis
